Laboratory results taken from publication PMC9491098, “Discovery of novel drug-like antitubercular hits targeting the MEP pathway enzyme DXPS by strategic application of ligand-based virtual screening” (Chemical Science, 2022).
Values after ≈ are worked out from the molar mass of the structure shown. Values joined by “and” are separate entries in the source; they are usually repeats but may differ in a detail not shown here. Equal entries are not always repeated. Where two headings read alike, the source gives them in different places.

How the values were obtained:
[1] = tested on: HepG2; experiment: toxicity against human cell lines; format: cell-based; details: HepG2, 48 h, read-out: Toxicity Human cell lines EC50 (μM) HepG2
[2] = tested on: zebrafish larvae; experiment: toxicity against zebrafish larvae; format: in vivo; details: Table S4, 10 larvae per condition
[3] = target: T1, MtDXPS (Mycobacterium tuberculosis, UniProt P9WNS3)
T1 sequence (P9WNS3 whole entry, looked up): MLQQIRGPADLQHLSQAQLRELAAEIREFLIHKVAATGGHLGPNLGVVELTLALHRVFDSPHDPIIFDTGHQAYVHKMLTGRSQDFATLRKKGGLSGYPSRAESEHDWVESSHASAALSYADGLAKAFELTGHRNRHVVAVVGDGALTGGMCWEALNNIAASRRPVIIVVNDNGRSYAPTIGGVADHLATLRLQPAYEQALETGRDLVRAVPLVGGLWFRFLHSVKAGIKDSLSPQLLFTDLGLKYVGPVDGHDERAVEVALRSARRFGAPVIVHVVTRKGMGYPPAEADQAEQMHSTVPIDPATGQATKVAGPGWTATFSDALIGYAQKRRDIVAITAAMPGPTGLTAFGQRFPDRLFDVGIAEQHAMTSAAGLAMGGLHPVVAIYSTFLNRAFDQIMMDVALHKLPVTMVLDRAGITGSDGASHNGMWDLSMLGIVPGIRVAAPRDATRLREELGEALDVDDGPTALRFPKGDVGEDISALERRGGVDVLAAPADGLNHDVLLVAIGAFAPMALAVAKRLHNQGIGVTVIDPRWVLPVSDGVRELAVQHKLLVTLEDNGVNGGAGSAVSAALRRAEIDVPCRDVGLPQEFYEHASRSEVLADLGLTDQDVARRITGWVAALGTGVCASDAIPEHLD

[4] = tested on: E. coli strain BL21 (DE3) pET22b-H6[…]; experiment: microbe, parasite or virus in culture; format: cell-based; details: Escherichia coli, Fig. 6B
[5] = tested on: M. tuberculosis strains; experiment: MIC against multiple M. tuberculosis strains, absolute concentration method on 7H10 agar; format: cell-based; details: Mycobacterium tuberculosis
[6] = target: T1, MtDXPS; experiment: biochemical
[7] = tested on: E. coli TolC; experiment: microbe, parasite or virus in culture; format: cell-based; details: Escherichia coli
[8] = target: DrDXPS (WT) (Deinococcus radiodurans, UniProt Q9RUB5); experiment: biochemical; format: biochemical; details: IC50, Fig. 5F/G, DrDXPS (WT)
Sequence of DrDXPS (WT) (Q9RUB5 whole entry, looked up): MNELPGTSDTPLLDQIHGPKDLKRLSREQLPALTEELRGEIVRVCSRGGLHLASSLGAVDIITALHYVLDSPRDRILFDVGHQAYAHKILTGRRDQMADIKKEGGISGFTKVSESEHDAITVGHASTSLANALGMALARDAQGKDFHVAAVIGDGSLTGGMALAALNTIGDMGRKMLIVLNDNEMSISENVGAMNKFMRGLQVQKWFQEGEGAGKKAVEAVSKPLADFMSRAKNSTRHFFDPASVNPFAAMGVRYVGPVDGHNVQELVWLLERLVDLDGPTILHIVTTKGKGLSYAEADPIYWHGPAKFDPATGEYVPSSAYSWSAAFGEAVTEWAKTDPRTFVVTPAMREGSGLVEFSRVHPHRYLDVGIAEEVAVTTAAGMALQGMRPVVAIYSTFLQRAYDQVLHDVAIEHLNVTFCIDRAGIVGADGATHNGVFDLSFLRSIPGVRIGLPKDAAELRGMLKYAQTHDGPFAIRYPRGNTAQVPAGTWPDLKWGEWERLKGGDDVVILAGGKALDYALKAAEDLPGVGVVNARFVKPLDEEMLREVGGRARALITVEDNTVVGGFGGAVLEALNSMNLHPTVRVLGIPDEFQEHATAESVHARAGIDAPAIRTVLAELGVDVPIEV

[9] = tested on: A549; experiment: toxicity against human cell lines; format: cell-based; details: A549, 48 h, read-out: Toxicity Human cell lines EC50 (μM) A549
[10] = tested on: E. coli strain BL21 (DE3) pQEYAEM; experiment: microbe, parasite or virus in culture; format: cell-based; details: Escherichia coli, Fig. 6A
[11] = target: T1, MtDXPS; experiment: biochemical; details: for mode of inhibition on MtDXPS: MOI study, comparison of IC50 under varied [ThDP], [PYR], [D-GAP]; for equilibration time (slow-binding): time-dependent progress curves, Fig. 4A, inhibitor 100 µM
[12] = metabolic stability in human liver S9 fraction; details: pooled liver S9 fraction
Protocol: For vitro assessment of metabolic stability, 10 µL of each compound (10 µM) was
incubated with human pooled liver S9-fraction (1 mg/mL, Corning, Corning, NY, USA)
in a master mix containing 2 mM NADP, 10 mM glucose-6-phosphate, 10 U/mL
glucose-6-phosphate dehydrogenase, 1 mM UDPGA, 0.1 mM PAPS, 10 mM MgCl2.
acetonitrile containing diphenhydramine as internal standard at 4 °C. The supernatant
was used for LC-MS analysis and half life time t1/2 was calculated from decreasing
concentrations/peak areas.
LC conditions: samples were analyzed with an Ultimate 3000 HPLC (Thermo Fisher,
Waltham, MA, USA) coupled to a TSQ Quantum Access Max triple quadrupole mass
spectrometer (Thermo Fisher, Waltham, MA, USA) in SRM mode. Analysis was
performed on a Nucleodur C18 Pyramid column (3 µm, 2x150 mm, Macherey-Nagel,
Düren, Germany) with a flow of 0.6 mL/min and a water (0.1% formic acid) and
acetonitrile (0.1% formic acid) eluent system. Gradient as follows: 10% acetonitrile for
1 min, 10–90% acetonitrile over 0.7 min, 90% acetonitrile for 1.8 min, equilibration at
10% acetonitrile for 1 min.
MS conditions: calibration of mass spectrometer parameters was performed
individually for each compound:

[13] = target: T1, MtDXPS; experiment: microscale thermophoresis (MST) dissociation constant; format: binding; details: Fig. 4F
Protocol: ETB + A <===> ETAB : Ka2 (Ka2 is the dissociation constant of pyruvate with […]
ETA + B <===> ETAB : Kb2 (Kb2 is the dissociation constant of ThDP with DXPS) E + I <===> EI* : Ki* (Ki* is the Morrison inhibition constant of inhibitor with apoDXPS) ETAB ---> ET + P : kcat (kcat is the catalytic constant of DXPS) […]
microscale thermophoresis (MST)
MST measurements were performed on a Monolith NT.115 (NanoTemper
Technologies GmbH, Germany) instrument using red-dye-NHS fluorescent labeling.
Each purified MtDXPS sample was labeled with red-dye-NHS second generation dye, according to the supplied protocol. Measurements were performed in 100 m M Tris-HCl (pH 7.6) containing 0.05% Tween-20 and 5% DMSO in premium treated capillaries.
The final concentration of each labeled protein in the assay was 100 n M. The inhibitors were titrated in 1:1 dilutions according to the supplier’s recommendations. All binding reactions were incubated at room temperature for 30 min before loading, and then pre-incubated for 5 min at room temperature after loading into the capillaries. Experiments were performed in duplicates, using 40% LED power, medium MST power, laser on time 20 s, and laser off time 3 s. Kds of the inhibitors were extracted from raw data at a 10–20 s on time according to the manufacturer’s instructions. A denaturation test was performed to exclude any nonspecific spectral interactions between the inhibitors […]
The solutions were vortexed, and then the rest of the assay components was added in the following order: HEPES, pH = 8 (100 m M), bovine serum albumin (1 mg/mL), cysteine (2 mM), ThDP (0.325 μM), coenzyme-A (150 μM), TCEP (300 μM), pyruvate (150 μM) and MgCl2 (1 mM). […] Porcine PDH (final concentration of 0.01 U/ mL) was then added to initiate the reactions, which were monitored spectrophotometrically by measuring the […]

[14] = tested on: HEK293; experiment: toxicity against human cell lines; format: cell-based; details: HEK293, 48 h, read-out: Toxicity Human cell lines EC50 (μM) HEK293
[15] = [IPTG] 0.5 mM (MtDXPS overexpression)
[16] = read-out: Antitubercular activity Strain & MIC (μM) A
[17] = read-out: Antitubercular activity Strain & MIC (μM) B
[18] = read-out: Antitubercular activity Strain & MIC (μM) C
[19] = read-out: Antitubercular activity Strain & MIC (μM) D
[20] = read-out: Antitubercular activity Strain & MIC (μM) E
[21] = read-out: Antitubercular activity Strain & MIC (μM) F
[22] = susceptible, DR, MDR and XDR strains, read-out: antitubercular activity (MIC) against multiple M. tuberculosis strains
[23] = Morrison constant Ki* against MtDXPS, two-step tight-binding Morrison model, Dynafit, text and Fig. 4C–E
[24] = [ThDP] 0.1 μM (1.6x Km), [PYR] 0.5 mM (2.4x), [D-GAP] […] (1.5x)
[25] = [ThDP] 0.1 μM (1.6x Km), [PYR] […] (1.2x), [D-GAP] 0.5 mM (2.9x)
[26] = [ThDP] 0.1 μM (1.6x Km), [PYR] […] (1.2x), [D-GAP] […] (1.5x)
[27] = [ThDP] 0.2 μM (3.2x Km), [PYR] […] (1.2x), [D-GAP] […] (1.5x)
[28] = [IPTG] 0.5 mM (E. coli IspC overexpression)

SMILES: ON=C(Cc1ccc(Cl)cc1)c1ccc(O)cc1O [Compound 9]
- EC50 [1]: > 50 µM
- number of living zebrafish larvae ([2]; 2 µM, 24 h (2 dpf)): 10
- number of living zebrafish larvae ([2]; 2 µM, 48 h (3 dpf)): 10
- number of living zebrafish larvae ([2]; 2 µM, 72 h (4 dpf)): 10
- number of living zebrafish larvae ([2]; 2 µM, 96 h (5 dpf)): 10
- number of living zebrafish larvae ([2]; 10 µM, 24 h (2 dpf)): 10
- number of living zebrafish larvae ([2]; 10 µM, 48 h (3 dpf)): 10
- number of living zebrafish larvae ([2]; 10 µM, 72 h (4 dpf)): 10
- number of living zebrafish larvae ([2]; 10 µM, 96 h (5 dpf)): 10
- number of living zebrafish larvae ([2]; 30 µM, 24 h (2 dpf)): 10
- number of living zebrafish larvae ([2]; 30 µM, 48 h (3 dpf)): 10
- number of living zebrafish larvae ([2]; 30 µM, 72 h (4 dpf)): 10
- number of living zebrafish larvae ([2]; 30 µM, 96 h (5 dpf)): 10
- number of living zebrafish larvae ([2]; 100 µM, 24 h (2 dpf)): 5
- number of living zebrafish larvae ([2]; 100 µM, 48 h (3 dpf)): 2
- number of living zebrafish larvae ([2]; 100 µM, 72 h (4 dpf)): 0
- number of living zebrafish larvae ([2]; 100 µM, 96 h (5 dpf)): 0
- hit validation (false-positive check) [3]: true inhibitors
- MIC ([4]; [IPTG] 0 mM): 15 ± 1 µM (≈ 4.17 µg/mL)
- MIC [4, 15]: > 200 µM
- MIC [5, 16]: 10 µM (≈ 2.78 µg/mL)
- MIC [5, 17]: 10 µM (≈ 2.78 µg/mL)
- MIC [5, 18]: 10 µM (≈ 2.78 µg/mL)
- MIC [5, 19]: 10 µM (≈ 2.78 µg/mL)
- MIC [5, 20]: 10 µM (≈ 2.78 µg/mL)
- MIC [5, 21]: 5 to 10 µM (≈ 1.39 to 2.78 µg/mL)
- MIC [5, 22]: 5 to 10 µM (≈ 1.39 to 2.78 µg/mL)
- Ki ([6]; K i* (μM), Table 1B, oxime derivatives, MtDXPS): 0.3 ± 0.02 µM
- Ki [6, 23]: 0.271 µM and 0.2 to 0.3 µM
- MIC [7]: 21.9 ± 1.3 µM (≈ 6.08 µg/mL)
- IC50 [8, 24]: 59 ± 10 µM
- IC50 [8, 25]: 70 ± 11 µM
- IC50 [8, 26]: 33 ± 4 µM
- IC50 [8, 27]: 54 ± 7 µM
- EC50 [9]: > 50 µM
- MIC ([10]; [IPTG] 0 mM): 12 ± 3 µM (≈ 3.33 µg/mL)
- MIC [10, 28]: 10 ± 1 µM (≈ 2.78 µg/mL)
- IC50 ([11]; IC50 (μM)): 44 ± 8 µM
- IC50 ([11]; IC50 against MtDXPS): 140 ± 12 µM
- IC50 ([11]; IC50 against MtDXPS (MOI study)): 17 µM and 35 µM and 58 µM and 121 µM
- mode of inhibition on MtDXPS [11]: competitive with ThDP and both substrates
- equilibration time (slow-binding) [11]: ~100 s
- half-life at 10 µM [12]: 20 min
- Kd [13]: 0.221 µM and 0.2 µM
- EC50 [14]: > 50 µM

SMILES: Cc1nc(N)sc1-c1csc(Nc2ccc(C(F)(F)F)cc2)n1 [Compound 10]
- EC50 [1]: > 50 µM
- number of living zebrafish larvae ([2]; 2 µM, 24 h (2 dpf)): 10
- number of living zebrafish larvae ([2]; 2 µM, 48 h (3 dpf)): 10
- number of living zebrafish larvae ([2]; 2 µM, 72 h (4 dpf)): 10
- number of living zebrafish larvae ([2]; 2 µM, 96 h (5 dpf)): 10
- number of living zebrafish larvae ([2]; 10 µM, 24 h (2 dpf)): 10
- number of living zebrafish larvae ([2]; 10 µM, 48 h (3 dpf)): 10
- number of living zebrafish larvae ([2]; 10 µM, 72 h (4 dpf)): 10
- number of living zebrafish larvae ([2]; 10 µM, 96 h (5 dpf)): 10
- number of living zebrafish larvae ([2]; 30 µM, 24 h (2 dpf)): 2
- number of living zebrafish larvae ([2]; 30 µM, 48 h (3 dpf)): 0
- number of living zebrafish larvae ([2]; 30 µM, 72 h (4 dpf)): 0
- number of living zebrafish larvae ([2]; 30 µM, 96 h (5 dpf)): 0
- number of living zebrafish larvae ([2]; 100 µM, 24 h (2 dpf)): 0
- number of living zebrafish larvae ([2]; 100 µM, 48 h (3 dpf)): 0
- number of living zebrafish larvae ([2]; 100 µM, 72 h (4 dpf)): 0
- number of living zebrafish larvae ([2]; 100 µM, 96 h (5 dpf)): 0
- hit validation (false-positive check) [3]: true inhibitors
- MIC ([4]; [IPTG] 0 mM): 13 ± 1 µM (≈ 4.63 µg/mL)
- MIC [4, 15]: 35 ± 3 µM (≈ 12.5 µg/mL)
- MIC [5, 16]: > 10 µM
- MIC [5, 17]: 5 µM (≈ 1.78 µg/mL)
- MIC [5, 18]: 5 µM (≈ 1.78 µg/mL)
- MIC [5, 19]: 10 µM (≈ 3.56 µg/mL)
- MIC [5, 20]: 5 to 10 µM (≈ 1.78 to 3.56 µg/mL)
- MIC [5, 21]: 5 to 10 µM (≈ 1.78 to 3.56 µg/mL)
- MIC [5, 22]: 5 to 10 µM (≈ 1.78 to 3.56 µg/mL)
- Ki ([6]; K i* (μM), Table 1C, aminothiazole derivatives, MtDXPS): 0.2 ± 0.02 µM
- Ki [6, 23]: 0.212 µM and 0.2 to 0.3 µM
- MIC [7]: 22.2 ± 3.1 µM (≈ 7.91 µg/mL)
- IC50 [8, 24]: 108 ± 20 µM
- IC50 [8, 25]: 132 ± 22 µM
- IC50 [8, 26]: 60 ± 11 µM
- IC50 [8, 27]: 81 ± 12 µM
- EC50 [9]: > 50 µM
- MIC ([10]; [IPTG] 0 mM): 15 ± 3 µM (≈ 5.35 µg/mL)
- MIC [10, 28]: 17 ± 2 µM (≈ 6.06 µg/mL)
- IC50 ([11]; IC50 (μM)): 32 ± 3 µM
- IC50 ([11]; IC50 against MtDXPS): 118 ± 10 µM
- mode of inhibition on MtDXPS [11]: competitive with ThDP and both substrates
- equilibration time (slow-binding) [11]: ~100 s
- half-life at 10 µM [12]: > 60 min
- Kd [13]: 0.206 µM and 0.2 µM
- EC50 [14]: 25 to 50 µM
